Measured values reported in ChEMBL document CHEMBL5584237, “Design, synthesis, biological evaluation, and in silico studies of novel pyridopyridine derivatives as anticancer candidates targeting FMS kinase” (Eur J Med Chem, 2024).
Calls of active or inactive are those of the source. The calls are words filed in the database; no cut-off is given here.

Assays:
[1] = Selectivity index, ratio of IC50 for human WI-38 cells to IC50 for human RXF 393 cells
[2] = Selectivity index, ratio of IC50 for human WI-38 cells to IC50 for human SNB-75 cells
[3] = Selectivity index, ratio of IC50 for human WI-38 cells to IC50 for human HT-29 cells; format: toxicity; details: WI-38 cells and HT-29 cells, read-out: Ratio IC50
MDA-MB-468 = test: Antiproliferative activity against human MDA-MB-468 cells assessed as cell growth inhibition; format: functional
[4] = Selectivity index, ratio of IC50 for human WI-38 cells to IC50 for human MDA-MB-468 cells; format: toxicity; details: WI-38 cells and MDA-MB-468 cells, read-out: Ratio IC50
[5] = Selectivity index, ratio of IC50 for human HS27 cells to IC50 for human MCF7 cells
[6] = Selectivity index, ratio of IC50 for human HS27 cells to IC50 for human SR cells
[7] = Selectivity index, ratio of IC50 for human HS27 cells to IC50 for human SW-620 cells
CCRF-CEM = test: Antiproliferative activity against human CCRF-CEM cells assessed as cell growth inhibition; format: functional
[8] = Selectivity index, ratio of IC50 for human HS27 cells to IC50 for human HCT-15 cells
[9] = Selectivity index, ratio of IC50 for human HS27 cells to IC50 for human NCI-H460 cells
[10] = Selectivity index, ratio of IC50 for human WI-38 cells to IC50 for human COLO 205 cells
[11] = Selectivity index, ratio of IC50 for human HS27 cells to IC50 for human MDA-MB-435 cells
SR = test: Antiproliferative activity against human SR cells assessed as cell growth inhibition; format: functional
[12] = Selectivity index, ratio of IC50 for human HS27 cells to IC50 for human DU-145 cells
HepG2 = test: cells; details: Homo sapiens, HepG2, 48 h
Description: Antiproliferative activity against human HepG2 cells assessed as cell growth inhibition measured after 48 hrs by MTT assay

[13] = Selectivity index, ratio of IC50 for human WI-38 cells to IC50 for human SR cells; format: toxicity; details: WI-38 cells and SR cells, read-out: Ratio IC50
Hs-578T = test: Antiproliferative activity against human Hs-578T cells assessed as cell growth inhibition; format: functional
Hep 3B2 [14] = test: Cell cycle arrest in human Hep3B cells assessed as downregulation of cyclin D1 expression at 0.5 x IC50 to IC50 measured after 48 hrs by Western blot analysis; format: functional, cell-based
SW-620 = test: Antiproliferative activity against human SW-620 cells assessed as cell growth inhibition; format: functional
786-0 = test: Antiproliferative activity against human 786-0 cells assessed as cell growth inhibition; format: functional
HCT-116 = test: Antiproliferative activity against human HCT-116 cells assessed as cell growth inhibition; format: functional
MDA-MB-435 = test: Antiproliferative activity against human MDA-MB-435 cells assessed as cell growth inhibition; format: functional
SF-295 = test: Antiproliferative activity against human SF-295 cells assessed as cell growth inhibition; format: functional
[15] = Selectivity index, ratio of IC50 for human WI-38 cells to IC50 for human MCF7 cells; format: toxicity; details: WI-38 cells and MCF7 cells, read-out: Ratio IC50
[16] = Selectivity index, ratio of IC50 for human WI-38 cells to IC50 for human M14 cells
Hep 3B2 [17] = test: Induction of apoptosis in human Hep3B cells assessed as increase in cleaved PARP expression measured after 48 hrs by Western blot analysis; format: functional, cell-based
PC-3 = test: Antiproliferative activity against human PC-3 cells assessed as cell growth inhibition; format: functional
[18] = Selectivity index, ratio of IC50 for human HS27 cells to IC50 for human OVCAR-4 cells
[19] = Selectivity index, ratio of IC50 for human WI-38 cells to IC50 for human CCRF-CEM cells; format: toxicity; details: WI-38 cells and CCRF-CEM cells, read-out: Ratio IC50
[20] = Selectivity index, ratio of IC50 for human WI-38 cells to IC50 for human MDA-MB-231 cells; format: toxicity; details: WI-38 cells and MDA-MB-231 cells, read-out: Ratio IC50
[21] = Selectivity index, ratio of IC50 for human HS27 cells to IC50 for human MDA-MB-231 cells
[22] = Selectivity index, ratio of IC50 for human HS27 cells to IC50 for human SF-539 cells
CAKI-1 = test: Antiproliferative activity against human CAKI-1 cells assessed as cell growth inhibition; format: functional
[23] = Selectivity index, ratio of IC50 for human WI-38 cells to IC50 for human Malme-3M cells
[24] = Selectivity index, ratio of IC50 for human HS27 cells to IC50 for human LOX IMVI cells
MDA-MB-231 = test: Antiproliferative activity against human MDA-MB-231 cells assessed as cell growth inhibition; format: functional
[25] = Selectivity index, ratio of IC50 for human HS27 cells to IC50 for human SNB-75 cells
M14 = test: Antiproliferative activity against human M14 cells assessed as cell growth inhibition; format: functional
[26] = Cytotoxicity against human HS27 cells assessed as reduction in cell growth measured after 48 hrs by MTT assay; format: toxicity, cell-based
SNB-75 = test: Antiproliferative activity against human SNB-75 cells assessed as cell growth inhibition; format: functional
OVCAR-4 = test: Antiproliferative activity against human OVCAR-4 cells assessed as cell growth inhibition; format: functional
[27] = Selectivity index, ratio of IC50 for human HS27 cells to IC50 for human RXF 393 cells
[28] = Selectivity index, ratio of IC50 for human HS27 cells to IC50 for human M14 cells
[29] = Selectivity index, ratio of IC50 for human HS27 cells to IC50 for human A549 cells
in vitro = details: human, WI-38 cells and A549 cells
Description: Selectivity index, ratio of IC50 for human WI-38 cells to IC50 for human A549 cells

SK-MEL-28 = test: Antiproliferative activity against human SK-MEL-28 cells assessed as cell growth inhibition; format: functional
[30] = Selectivity index, ratio of IC50 for human HS27 cells to IC50 for human HCT-116 cells

For `CCN1CCN(c2ccc(NC(=O)Nc3ccc(-c4cc(C(=O)NC(C)C)c5ncccc5n4)cc3)cc2C(F)(F)F)CC1`, the “Ratio IC50” value [1] was 10.52, the “Ratio IC50” value [2] was 8.71 and the selectivity ratio [3] was 18.8. For the same molecule, the GI50 (MDA-MB-468) was 0.77 µM, the TGI (MDA-MB-468) was 1.85 µM and the selectivity ratio [4] was 10.1. For the same molecule, the “Ratio IC50” value [5] was 5.22, the “Ratio IC50” value [6] was 8 and the “Ratio IC50” value [7] was 9.77. For the same molecule, the TGI (CCRF-CEM) was 3.1 µM, the “Ratio IC50” value [8] was 9.77 and the “Ratio IC50” value [9] was 3.32. The “Ratio IC50” value [10] was 18.84, the “Ratio IC50” value [11] was 4.47 and the TGI (SR) was 12.1 µM. The “Ratio IC50” value [12] was 11.2, the IC50 (HepG2) was 0.46 µM and the selectivity ratio [13] was 15.4. The GI50 (Hs-578T) was 0.88 µM, the TGI (Hs-578T) was 3.45 µM and the Activity (Hep 3B2 [14]) was “inactive”. The GI50 (SW-620) was 0.64 µM, the TGI (SW-620) was 1.26 µM and the GI50 (786-0) was 0.5 µM. The TGI (786-0) was 1.03 µM, the GI50 (HCT-116) was 0.64 µM and the TGI (HCT-116) was 1.3 µM. It also gave a GI50 (MDA-MB-435) of 0.65 µM, a TGI (MDA-MB-435) of 1.31 µM and a GI50 (SF-295) of 0.58 µM. The TGI (SF-295) was 1.14 µM, the selectivity ratio [15] was 10.1 and the “Ratio IC50” value [16] was 8.62. For the same molecule, the Activity (Hep 3B2 [17]) was “Dose-Dependent Effect”, the GI50 (PC-3) was 0.76 µM and the TGI (PC-3) was 2.1 µM. For the same molecule, the “Ratio IC50” value [18] was 3.05, the selectivity ratio [19] was 15.4 and the selectivity ratio [20] was 10.1. The “Ratio IC50” value [21] was 5.22, the “Ratio IC50” value [22] was 4.52 and the GI50 (CAKI-1) was 0.8 µM. The TGI (CAKI-1) was 2.08 µM, the “Ratio IC50” value [23] was 8.62 and the “Ratio IC50” value [24] was 4.47. For the same molecule, the GI50 (MDA-MB-231) was 0.61 µM, the TGI (MDA-MB-231) was 1.18 µM and the “Ratio IC50” value [25] was 4.52. It also gave a GI50 (M14) of 0.72 µM, a TGI (M14) of 1.9 µM and an IC50 at 48 h [26] of 8.4 µM. For the same molecule, the GI50 (SNB-75) was 0.98 µM, the TGI (SNB-75) was 5.14 µM and the GI50 (OVCAR-4) was 0.88 µM. For the same molecule, the TGI (OVCAR-4) was 2.45 µM, the “Ratio IC50” value [27] was 5.45 and the “Ratio IC50” value [28] was 4.47. The “Ratio IC50” value [29] was 3.32, the selectivity ratio (in vitro) was 6.4 and the GI50 (SK-MEL-28) was 0.75 µM. For the same molecule, the TGI (SK-MEL-28) was 1.85 µM and the “Ratio IC50” value [30] was 9.77.
